Assay results as given in patent US11851389B2, “Cationic lipids for nucleic acid delivery and preparation thereof” (RAMOT AT TEL-AVIV UNIVERSITY LTD., priority 2016, dated 2023).
“Also recorded” adds a separate entry of the source.

What was measured:
C57BL6/j mice [1] = experiment: In vivo delivery of luciferase mRNA to liver, intravenous, bioluminescence imaging; settings: intravenously, 1 mg/kg body weight
Protocol: LNPs composed of either lipid 54 or lipid 38 formulated with luciferase mRNA were administered intravenously into C57BL6/j mice at 1 mg/kg body weight. After 8 hrs, luciferase expression was measured by bioluminescence imaging system Biospace.
LNPs composed of lipid 38 formulated with luciferase mRNA were administered intravenously into C57BL6/j mice at 1 mg/kg body weight. After 8 hrs and 24 hrs of administration, luciferase expression was measured by bioluminescence imaging system Biospace.

[2] = LNP size distribution, PDI and ζ potential by dynamic light scattering; format: physicochemical; settings: LNP-siRNA formulations
Protocol: LNPs were prepared by using microfluidic micro mixture (Precision NanoSystems, Vancouver, BC, Canada) as described by Cohen et. al. One volume of lipid mixtures (cationic lipid, DSPC, Chol, DMG-PEG and DSPE-PEG Mal at 50:10:38:1.5:0.5 mole ratio, […] total lipid concentration) in ethanol and three volumes of siRNA (1:16 w/w siRNA to lipid) containing acetate buffer solutions were injected through the micro mixer at a combined flow rate of 2 mL/minute (0.5 mL/min for ethanol and 1.5 mL/min for aqueous buffer). For labeled LNPs, 10% of Alexa-647 labeled siRNA were incorporated. For Cy5 labeled particles, 10% Cy5 labeled non-targeted siRNA was used. The resultant mixture was dialyzed against PBS (pH 7.4) for 16 h to remove ethanol.
LNPs size distribution and ζ potential were determined by dynamic light scattering using a Malvern nano ZS ζ-sizer (Malvern instruments, UK). For size measurements, LNPs were diluted 1:20 in PBS. […] For ζ potential measurements, LNPs were diluted 1:200 in DDW. In some cases, as indicated, size and zeta potential measurements were performed in water.

[3] = tested on: Human multiple myeloma suspension cells (MM1); experiment: Cell viability after PLK1 silencing, XTT assay; format: cell-based; settings: MM1, 48 hrs
Protocol: Human multiple myeloma suspension cells (MM1) were incubated with siPLK1-LNPs or siCtl-LNPs composed of either lipid 38 or 55 at different concentrations for 48 hrs. Cell viability affected by PLK1 down regulation was measured by XTT assay.

Cynomolgus monkeys = experiment: Liver toxicity (serum ALT, AST) in non-human primate; format: in vivo; settings: single i.v. 0.5 mg/kg, particles with siNC5, serum at 1 and 24 h, compared with MC3
Protocol: Cynomolgus monkeys (n=2 per group, males) received a single I.v. administration (1 ml/kg) of (0.5 mg/kg) of MC3 particles with siNC5 and lipid 38-based particles with siNC5 (0.5 mg/Kg). At 1 and 24 h post administration serum was collected at and analyzed for ALT, AST (by Roch Cobra Auto analyzer). Each data point is an average of 2 animals±SEM.

[4] = tested on: murine macrophage cells (RAW 264.7); experiment: In vitro delivery of luciferase mRNA, luminometer; format: cell-based; settings: 18 hrs
Protocol: Hard to transfect murine macrophage cells (RAW 264.7) were treated with LNPs composed of either Lipid38 or Lipid 54 and formulated with luciferase mRNA at different amounts of mRNA. After 18 hrs luciferase expression was measured by luminometer.

C57BL6/j mice [5] = experiment: In vivo delivery of luciferase mRNA to muscle cells, intramuscular, bioluminescence imaging; settings: i.m., 1 mg/kg body weight
Protocol: LNPs composed of either lipid 54 or lipid 38 formulated with luciferase mRNA were administered intramuscularly in to C57BL6/j mice at 1 mg/kg body weight. Luciferase expression was measured by bioluminescence imaging system Biospace: (a) after 8 hrs of i.m. administration; and (b) after 24 hrs. […] The expression was still high 24 hrs after the administration of LNPs indicating the efficiency of these lipids in delivering mRNA in vivo.

[6] = tested on: Human colon carcinoma cells (HCT 116); experiment: In vitro expression of LUC pDNA, luminometer; format: cell-based; settings: HCT 116, LNPs-LUC pDNA with DOPE, Chol, PEG-DMG, 48 hrs
Protocol: Human colon carcinoma cells (HCT 116) were incubated with LNPs-LUC pDNA at different concentrations for 48 hrs. Luciferase expression was measured by luminometer. Lipofectamine 2000 (Lipo 2000) was used as positive control. LNPs were composed of lipid 38 and different amounts of co-lipid DOPE, along with other co-lipids such as Chol, PEG-DMG.

[7] = tested on: Human multiple myeloma suspension cells (U266); experiment: Cell viability after PLK1 silencing, XTT assay; format: cell-based; settings: U266, 48 hrs
Protocol: Human multiple myeloma suspension cells (U266) were incubated with siPLK1-LNPs or siCtl-LNPs composed of either lipid 38 or 55 at different concentrations for 48 hrs. Cell viability affected by PLK1 down regulation was measured by XTT assay.

[8] = tested on: Human multiple myeloma suspension cells (U266); experiment: PLK1 expression by qPCR after siPLK1-LNPs; format: cell-based; settings: U266, 48 hrs, normalized to LNPs-ctl siRNA treated cells
Protocol: The mRNA levels of pololike kinase 1 (PLK1 gene) in cells was quantified by real-time PCR, forty eight or Seventy-two hours post-transfection. Total RNA was isolated using the E-Z RNA purification kit (Biological industries, Beit Haemek, Israel), and 1 μg of RNA from each sample was reverse transcribed into cDNA using the High Capacity cDNA Reverse Transcription Kit (Applied Biosystems, Foster City, CA), Quantification of cDNA (5 ng total) was performed on the step one Sequence Detection System (Applied Biosystems, Foster City, CA) using syber green (Applied Biosystems). GAPDH was chosen as a housekeeping gene.
Human multiple myeloma suspension cells (U266) were incubated with LNPs containing siPLK1 at different concentrations for 48 hrs. PLK1 expression was measured by qPCR. PLK1-mRNA levels were normalized to LNPs-ctl siRNA treated cells.

[9] = tested on: Human colon carcinoma cells (HCT116); experiment: Toxicity of LNPs with ctl siRNA, XTT cell viability; format: cell-based; settings: 72 hrs
Protocol: Human colon carcinoma cells (HCT116) were incubated with LNPs with ctl siRNA (see methods) for 72 hrs. The cell viability was measured by XTT assay. Toxicity of LNPs composed of either lipid 38 or lipid 55 is compared with gold standard LNPs composed of Dlin-MC3-DMA.

[10] = tested on: Human B-cell lymphoma suspension cells (RPMI-8226); experiment: Cell viability after PLK1 silencing, XTT assay; format: cell-based; settings: RPMI-8226, 48 hrs
Protocol: Human B-cell lymphoma suspension cells (RPMI-8226) were incubated with siPLK1-LNPs or siCtl-LNPs composed of either lipid 38 or 55 at different concentrations for 48 hrs. Cell viability affected by PLK1 down regulation was measured by XTT assay.

Compound: CCCCC/C=C\C/C=C\CCCCCCCCN(CCCCCCCC/C=C\C/C=C\CCCCC)CCOC(=O)CCCN(C)C [Lipid 38]
- Luciferase expression in liver, 8 hrs versus 24 hrs (C57BL6/j mice [1]): high after 8 hrs compared to after 24 hrs
- Luciferase expression in liver (C57BL6/j mice [1]; 8 hrs, 1 mg/kg): significant amount of luciferase in mouse liver compared to LNPs composed of lipid 54; also recorded: significant amount of luciferase expression was observed in liver
- Zeta-potential (mV) [2]: 6.7 mV
- PDI ([2]; DLS): 0.08
- Size (d · nm) ([2]; DLS): 59.0 nm
- Cell viability, siCtl-LNPs [3]: no effect on the cell viability
- Cell viability, siPLK1-LNPs [3]: dose dependent effect on multiple myeloma cancer cell viability
- Liver toxicity (ALT, AST) (Cynomolgus monkeys): No liver toxicity
- Dose dependence of luciferase expression ([4]; RAW 264.7, different amounts of mRNA): dose dependent expression was observed
- Luciferase expression ([4]; RAW 264.7, luciferase mRNA LNPs): efficiently compared to lipid 54-LNPs
- Luciferase expression after 8 hrs (C57BL6/j mice [5]; 8 hrs): significant amounts of luciferase
- Luciferase expression after 24 hrs (C57BL6/j mice [5]; 24 hrs): still high
- Delivery of pDNA to the nucleus [6]: efficiently delivering pDNA to the nucleus
- Cell viability, siCtl-LNPs [7]: no effect on the cell viability
- Cell viability, siPLK1-LNPs [7]: more effect on cell viability compared to Dlin-MC3-DMA LNPs
- PLK1 expression, siPLK1-LNPs [8]: efficiently down regulate
- Toxicity of LNPs (cell viability) [9]: less toxic than LNPs composed of Dlin-MC3-DMA
- Cell viability, siCtl-LNPs [10]: no effect on the cell viability
- Cell viability, siPLK1-LNPs [10]: dose dependent effect on B-cell lymphoma cancer cell viability
